Where two headings read alike, the source gives them in different places.
B1: PDE9A2 catalytic domain (residues 181-506) (domain or fragment, UniProt O76083-2 181-506, looked up)
chain: PTYPKYLLSPETIEALRKPTFDVWLWEPNEMLSCLEHMYHDLGLVRDFSINPVTLRRWLFCVHDNYRNNPFHNFRHCFCVAQMMYSMVWLCSLQEKFSQTDILILMTAAICHDLDHPGYNNTYQINARTELAVRYNDISPLENHHCAVAFQILAEPECNIFSNIPPDGFKQIRQGMITLILATDMARHAEIMDSFKEKMENFDYSNEEHMTLLKMILIKCCDISNEVRPMEVAEPWVDCLLEEYFMQSDREKSEGLPVAPFMDRDKVTKATAQIGFIKFVLIPMFETVTKLFPMVEEIMLQPLWESRDRYEELKRIDDAMKELQKK

Columns and labels:
PDE1C = details: PDE9 versus PDE1C, cited from earlier work
crystal structure = target: the molecule itself; experiment: crystal structure

Molecule | selectivity against PDE1C (PDE1C) [fold] | selectivity against PDE1C (PDE1C; listed as PF-04447943) | binding result (crystal structure)
C[C@@H]1CN(Cc2ncccn2)C[C@H]1c1nc2c(cnn2C2CCOCC2)c(=O)[nH]1 [compound 9, 6-[(3S,4S)-4-methyl-1-(pyrimidin-2-ylmethyl)pyrrolidin-3-yl]-1-(tetrahydro-2H-pyran4-yl)-1,5-dihydro-4H-pyrazolo[3,4-d]pyrimidin-4-one] | 170 | about 170 fold | 
B1 |  |  | binds
